Measurements: PMC9316855 (Molecules, 2022)

Columns and labels:
in vitro = settings: rat, serum, pH 7.4
[1] = 48 h
[2] = 24 h

Structure (SMILES)	remaining at 24 h (in vitro) [%]	remaining at 48 h (in vitro) [%]	peptide remaining intact in rat serum [1] [%]	peptide remaining intact in human plasma [2]
CC(C)C[C@H](NC(=O)[C@H](CC(=O)O)NC(=O)CNC(=O)[C@H](CCCNC(=N)N)NC(=O)[C@H](CC(C)C)NC(=O)[C@H](CC(N)=O)NC(=O)[C@@H]1CCCN1C(=O)[C@@H](NC(=O)[C@H](C)NC(=O)[C@H](CC(N)=O)NC(=O)COCCOCCOCCOCCOCCN)C(C)C)C(=O)N[C@@H](CCC(N)=O)C(=O)N[C@H](C(=O)N[C@@H](CC(C)C)C(=O)N[C@@H](C)C(=O)N[C@@H](CCC(N)=O)C(=O)N[C@@H](CCCCN)C(=O)N[C@H](C(=O)N[C@@H](C)C(=O)N[C@@H](CCCNC(=N)N)C(=O)N[C@H](C(=O)O)[C@@H](C)O)C(C)C)C(C)C [Compound 18]	~60	~40		
CC(C)C[C@H](NC(=O)[C@H](CC(=O)O)NC(=O)CNC(=O)[C@H](CCCNC(=N)N)NC(=O)[C@H](CC(C)C)NC(=O)[C@H](CC(N)=O)NC(=O)[C@@H]1CCCN1C(=O)[C@@H](NC(=O)[C@H](C)NC(=O)[C@H](CC(N)=O)NC(=O)COCCOCCOCCOCCOCCOCCOCCOCCN)C(C)C)C(=O)N[C@@H](CCC(N)=O)C(=O)N[C@H](C(=O)N[C@@H](CC(C)C)C(=O)N[C@@H](C)C(=O)N[C@@H](CCC(N)=O)C(=O)N[C@@H](CCCCN)C(=O)N[C@H](C(=O)N[C@@H](C)C(=O)N[C@@H](CCCNC(=N)N)C(=O)N[C@H](C(=O)O)[C@@H](C)O)C(C)C)C(C)C [Compound 19]	> 70		> 58	
CC(C)C[C@H](NC(=O)[C@H](CC(=O)O)NC(=O)CNC(=O)[C@H](CCCNC(=N)N)NC(=O)[C@H](CC(C)C)NC(=O)[C@H](CC(N)=O)NC(=O)[C@@H]1CCCN1C(=O)[C@@H](NC(=O)[C@H](C)NC(=O)[C@H](CC(N)=O)NC(=O)CCOCCOCCOCCOCCOCCN)C(C)C)C(=O)N[C@@H](CCC(N)=O)C(=O)N[C@H](C(=O)N[C@@H](CC(C)C)C(=O)N[C@@H](C)C(=O)N[C@@H](CCC(N)=O)C(=O)N[C@@H](CCCCN)C(=O)N[C@H](C(=O)N[C@@H](C)C(=O)N[C@@H](CCCNC(=N)N)C(=O)N[C@H](C(=O)O)[C@@H](C)O)C(C)C)C(C)C [Compound 20]	~60	~40		
CC(C)C[C@H](NC(=O)[C@H](CC(=O)O)NC(=O)CNC(=O)[C@H](CCCNC(=N)N)NC(=O)[C@H](CC(C)C)NC(=O)[C@H](CC(N)=O)NC(=O)[C@@H]1CCCN1C(=O)[C@@H](NC(=O)[C@H](C)NC(=O)[C@H](CC(N)=O)NC(=O)CCOCCOCCOCCOCCOCCOCCOCCOCCOCCOCCOCCOCCOCCOCCOCCOCCOCCOCCOCCOCCN)C(C)C)C(=O)N[C@@H](CCC(N)=O)C(=O)N[C@H](C(=O)N[C@@H](CC(C)C)C(=O)N[C@@H](C)C(=O)N[C@@H](CCC(N)=O)C(=O)N[C@@H](CCCCN)C(=O)N[C@H](C(=O)N[C@@H](C)C(=O)N[C@@H](CCCNC(=N)N)C(=O)N[C@H](C(=O)O)[C@@H](C)O)C(C)C)C(C)C [Compound 23]	~90	> 70		
CC(C)C[C@H](NC(=O)[C@H](CC(=O)O)NC(=O)CNC(=O)[C@H](CCCNC(=N)N)NC(=O)[C@H](CC(C)C)NC(=O)[C@H](CC(N)=O)NC(=O)[C@@H]1CCCN1C(=O)[C@@H](NC(=O)[C@H](CCCCNC(=O)CCCC[C@@H]1SC[C@@H]2NC(=O)N[C@@H]21)NC(=O)[C@H](CC(N)=O)NC(=O)COCCOCCNC(=O)CN(CCN(CCN(CC(=O)O)CC(=O)O)CC(=O)O)CC(=O)O)C(C)C)C(=O)N[C@@H](CCC(N)=O)C(=O)N[C@H](C(=O)N[C@@H](CC(C)C)C(=O)N[C@@H](C)C(=O)N[C@@H](CCC(N)=O)C(=O)N[C@@H](CCCCN)C(=O)N[C@H](C(=O)N[C@@H](C)C(=O)N[C@@H](CCCNC(=N)N)C(=O)N[C@H](C(=O)O)[C@@H](C)O)C(C)C)C(C)C [Compound 25]				around 80%
CC(C)C[C@H](NC(=O)[C@H](CC(=O)O)NC(=O)CNC(=O)[C@H](CCCNC(=N)N)NC(=O)[C@H](CC(C)C)NC(=O)[C@H](CC(N)=O)NC(=O)[C@@H]1CCCN1C(=O)[C@@H](NC(=O)[C@H](CCCCNC(=O)CCCC[C@@H]1SC[C@@H]2NC(=O)N[C@@H]21)NC(=O)[C@H](CC(N)=O)NC(=O)CCOCCOCCOCCOCCOCCOCCOCCOCCOCCOCCOCCOCCOCCOCCOCCOCCOCCOCCOCCOCCNC(=O)CN(CCN(CCN(CC(=O)O)CC(=O)O)CC(=O)O)CC(=O)O)C(C)C)C(=O)N[C@@H](CCC(N)=O)C(=O)N[C@H](C(=O)N[C@@H](CC(C)C)C(=O)N[C@@H](C)C(=O)N[C@@H](CCC(N)=O)C(=O)N[C@@H](CCCCN)C(=O)N[C@H](C(=O)N[C@@H](C)C(=O)N[C@@H](CCCNC(=N)N)C(=O)N[C@H](C(=O)O)[C@@H](C)O)C(C)C)C(C)C [Compound 30]				around 80%
